Laboratory results from patent publication US20230150924A1, “NOVEL COMPOUND HAVING CANCER METASTASIS INHIBITORY ACTIVITY, PREPARATION METHOD THEREFOR, AND PHARMACEUTICAL COMPOSITION FOR INHIBITING CANCER METASTASIS AND INVASION OR TREATING COLORECTAL CANCER, COMPRISING COMPOUND” (CELLGENTEK CO., LTD., priority 2019, published 2023).

Legend:
[1] = system: invasion of colorectal cancer cells; assay: In vivo relative invation (invasion; EV and KITENIN controls, no method described); details: relative to EV (=1); KIT = KITENIN
KAI1 promoter = KAI1 promoter luciferase reporter assay in transfected Caco2 cells; format: cell-based, human; details: Homo sapiens, Caco-2, 16 h, 1 μM compound, 16 hours, transfected Caco2 cells, luciferase activity relative to DMSO control (=1); read-out: Relative KAI promoter activity
Method: Experiments were conducted to evaluate the metastasis-related promoter activity-increasing effects of the compounds according to the present invention. Specifically, the KAI1 promoter reporter vector was used. In this case, the pRL-TK vector, a vector expressing renilla luciferase, was used as an internal control indicating the transfection efficiency in each transfected well.
First, 24 hours before transfection, 2×10^6 human colon cancer cell line, Caco2) cells were cultured in 10 ml of DMEM containing 10% FBS and 1% penicillin/streptomycin on a 100-mm-diameter plate, and then transformed with 5 μg of a pRL-TK vector mixture containing a transfection reagent and the KAI1 promoter, and then cultured in a 5% CO2 incubator at 37° C. for 48 hours. Thereafter, the adherent cells were detached using trypsin and counted using a hemacytometer, and then 5×10^3 transfected Caco2 cells in 100 μl of DMEM containing 10% FBS and 1% penicillin/streptomycin were seeded into each well of a 96-well plate and cultured in a 5% CO2 incubator at 37° C. for 24 hours. Next, 1 μM of each of the 305 compounds prepared in Examples 1 to 305 was added to each well, and after 16 hours, 100 μl of a lysis buffer for analysis containing a luciferase substrate was added, and the cells were lysed with stirring for 20 minutes. After completion of lysis, the cells were measured for luciferase activity using a luciferase reporter assay system (Promega, USA). […] In addition, data were analyzed at a significance level of p<0.05 by one-way ANOVA (Tukey's HSD), and SPSS 17.0 (Chicago, USA) statistical program was used. In Table 14 to 20, PHA is the PHA-665752, and KIT is KITENIN.

| SMILES | In vivo relative invation [1] | fold induction at 1 µM (KAI1 promoter) |
| --- | --- | --- |
| O=C(CNC(=O)c1cccc([N+](=O)[O-])c1)c1ccc(Cl)cc1 [Example 77, N-(2-(4-chlorophenyl)-2-oxoethyl)-3-nitrobenzamide] | 1.274 | 0.92 |
| O=C(CNC(=O)c1ccc(Cl)cc1)c1ccc(Cl)cc1 [Example 87, 4-chloro-N-(2-(4-chlorophenyl)-2-oxoethyl)benzamide] | 1.218 | 0.91 |
| O=C(CNC(=O)c1ccc(CN2CCN(c3ccccn3)CC2)cc1)c1ccccc1 [Example 264, N-(2-oxo-2-phenylethyl)-4-((4-(pyridin-2-yl)piperazin-1-yl)methyl)benzamide] | 1.199 | 1.91 |
| O=C(CNC(=O)c1ccccc1OC1CCN(S(=O)(=O)Cc2ccccc2)CC1)c1ccccc1 [Example 188, 2-((1-(benzylsulfonyl)piperidin-4-yl)oxy)-N-(2-oxo-2-phenylethyl)benzamide] | 1.123 | 0.92 |
| O=C(CNC(=O)c1cccc(CN2CCOCC2)c1)c1ccccc1 [Example 252, 3-(morpholinomethyl)-N-(2-oxo-2-phenylethyl)benzamide] | 1.165 | 1.56 |
| Cc1cccc(C(=O)NCC(=O)c2ccc(Cl)cc2)c1 [Example 53, N-(2-(4-chlorophenyl)-2-oxoethyl)-3-methylbenzamide] | 0.9411 | 2.02 |
| O=C(CNC(=O)c1ccccc1CN1CCN(c2ncccn2)CC1)c1ccccc1 [Example 300, N-(2-oxo-2-phenylethyl)-2-((4-(pyrimidin-2-yl)piperazin-1-yl)methyl)benzamide] | 0.9869 | 1.91 |
| O=C(CNC(=O)c1ccccc1OC1CCN(C(=O)c2ccc(F)cc2F)CC1)c1ccccc1 [Example 177, 2-((1-(2,4-difluorobenzoyl)piperidin-4-yl)oxy)-N-(2-oxo-2-phenylethyl)benzamide] | 1.159 | 0.95 |
| CC(=O)Oc1ccccc1C(=O)N1CCC(Oc2ccccc2C(=O)NCC(=O)c2ccccc2)CC1 [Example 176, 2-(4-(2-((2-oxo-2-phenylethyl)carbamoyl)phenoxy)piperidine-1-carbonyl)phenylacetate] | 1.26 | 1.08 |
| O=C(CNC(=O)c1ccccc1OC1CCN(C(=O)c2ccccc2C(F)(F)F)CC1)c1ccccc1 [Example 191, N-(2-oxo-2-phenylethyl)-2-((1-(2-(trifluoromethyl)benzoyl)piperidin-4-yl)oxy)benzamide] | 1.106 | 0.84 |
| Cc1cc(C)cc(C(=O)NCC(=O)c2ccccc2)c1 [Example 40, 3,5=dimethyl-N-(2-oxo-2-phenylethyl)benzamide] | 1.173 | 1 |
| O=C(CNC(=O)c1cccs1)c1ccccc1 [Example 18, N-(2-oxo-2-phenylethyl)thiophene-2-carboxamide] | 1.1 | 2.18 |
| O=C(CNC(=O)C1CCC1)c1ccc(N2CCOCC2)cc1 [Example 144, N-(2-(4-morpholinophenyl)-2-oxoethyl)cyclobutanecarboxamide] | 1.284 | 1.08 |
| O=C(CNC(=O)c1ccccc1OC1CCN(C(=O)c2cc(Cl)cc(Cl)c2)CC1)c1ccccc1 [Example 197, 2-((1-(3,5-dichlorobenzoyl)piperidin-4-yl)oxy)-N-(2-oxo-2-phenylethyl)benzamide] | 1.214 | 0.92 |
| CCN(CCO)Cc1ccc(C(=O)NCC(=O)c2ccccc2)cc1 [Example 274, 4-((ethyl(2-hydroxyethyl)amino)methyl)-N-(2-oxo-2-phenylethyl)benzamide] | 1.219 | 5.27 |
| O=C(CNC(=O)c1ccccc1CN1CCOCC1)c1ccccc1 [Example 304, 2-(morpholinomethyl)-N-(2-oxo-2-phenylethyl)benzamide] | 1.193 | 1.24 |
